Measured values published in patent US20230174538A1, “Tricyclic heterocycles” (Merck Patent GmbH, priority 2020, published 2023).

Test system: YAP-TEAD interaction
Assay: SK-HEP-1 reporter assay (8xTEAD responsive elements driving NanoLuc luciferase)
Format: cell-based
Details: Homo sapiens, SK-HEP1, SK-HEP-1 reporter assay
Protocol: To identify inhibitors of YAP-TEAD interaction, 8×TEAD responsive elements driving the NanoLuc® luciferase gene were stably integrated into SK-HEP-1 cells (ECACC #: 91091816).
For the assay, cells were treated in duplicates with the test compounds in a 10-point dose, with the top concentration starting at 30 μM (final concentration in assay). After a 24 hour incubation at 37° C., 95% rH, and 5% CO2, a luciferase substrate/lysis reagent mix (NanoGlo™, Promega) was added to the cells, allowing the quantification of cellular luciferase activity.
Cell Media: The cells were cultured in the following media: MEM, +10% FBS, +1× GlutaMAX, +1 mM Sodium-Pyruvate, +100 μM Non-essential amino acids, +0.1 mg/ml Hygromycin. The media used for the assay was: MEM (w/o Phenol Red), +10% FBS, +1× GlutaMAX, +1 mM Sodium-Pyruvate, +100 μM Non-essential amino acids, +0.5% Pen/Strep
Reagents: The reagents used are listed below:
Cell culture: The cells were examined using an inverted microscope to check for health and cell density. To dissociate adherent cells, the monolayer of cells was washed once with pre-warmed PBS. After removing the PBS, 3 ml pre-warmed Accutase® was added to a F75 flask, dispersed evenly and the flask was allowed to sit in incubator for ˜4-5 minutes.
When a single cell suspension was obtained, 7 ml of prewarmed growth media was added and resuspended with the cells. The cell suspension was transferred to a sterile 15 ml conical centrifuge tube, and spun for 5 min at 300×g, RT. The supernatant was discarded and the pellet was resuspended in 10 ml of pre-warmed growth media.
The total cell count was determined, and 20 μl of the desired cell number was added to each well of a 384 well plate using a Multidrop Combi. The plates were then incubated for 24 hours at 37° C., 95% rH, and 5% CO2.
Compound treatment: 24 hours after seeding, the cells were treated with compounds.
A 1:333 dilution of compounds, diluted in DMSO, was made to get a final concentration of 0.3% DMSO per well. To transfer the compounds to the assay plate, 120 nl was shot from Labcyte low dead volume plates to the cell plates containing 20 μl media/well with the ECHO 555 liquid handling system.
After treatment, the cells were fed with 20 μl fresh pre-warmed assay media using a Multidrop combi.
The assay plates were then incubated for another 24 h at 37° C., 95% rH, and 5% CO2.
Luciferase readout: 24 h after treatment, the plates were taken out of the incubator and were allowed to equilibrate to RT. 30 μl of NanoGlo® reagent was added to the plates in the dark. Plates were shaken for 20 min on a Teleshake (˜1500 rpm) in the dark. The luminescence was then measured using an EnVision microplate reader. The IC50 values were generated using Genedata Screener®.

| IC50 | SMILES |
| --- | --- |
| 10 to 100 nM | COc1nn(C)cc1CNC(=O)c1ccc2c(c1)c1cn(C)nc1n2-c1ccc(C(F)(F)F)cc1 [Example B93, N-[(3-methoxy-1-methyl-1H-pyrazol-4-yl)methyl]-2-methyl-8-[4-(trifluoromethyl)phenyl]-2H,8H-pyrazolo[3,4-b]indole-5-carboxamide] |
| > 10000 nM | Cn1cc2c3cc(C(=O)NCc4n[nH]c5c4CCCC5)ccc3n(-c3ccc(C(F)(F)F)cc3)c2n1 [Example B29, 2-methyl-N-[(4,5,6,7-tetrahydro-1H-indazol-3-yl)methyl]-8-[4-(trifluoromethyl)phenyl]-2H,8H-pyrazolo[3,4-b]indole-5-carboxamide] |
| 100 to 10000 nM | CC(NC(=O)c1ccc2c(c1)c1cn(C)nc1n2-c1ccc(C(F)(F)F)cc1)C(C)N1CCOCC1 (stereo not drawn) [Example B61, 2-methyl-N-[3-(morpholin-4-yl)butan-2-yl]-8-[4-(trifluoromethyl)phenyl]-2H,8H-pyrazolo[3,4-b]indole-5-carboxamide] |
| 100 to 10000 nM | Cn1cc2c3cc(C(=O)NC4CCCc5c4cnn5C)ccc3n(-c3ccc(C(F)(F)F)cc3)c2n1 (stereo not drawn) [Example B37, 2-methyl-N-(1-methyl-4,5,6,7-tetrahydro-1H-indazol-4-yl)-8-[4-(trifluoromethyl)phenyl]-2H,8H-pyrazolo[3,4-b]indole-5-carboxamide] |
| 100 to 10000 nM | Cn1cc2c3cc(C(=O)NC4(c5cncn5C)CC4)ccc3n(-c3ccc(C(F)(F)F)cc3)c2n1 [Example B70, 2-methyl-N-[1-(1-methyl-1H-imidazol-5-yl)cyclopropyl]-8-[4-(trifluoromethyl)phenyl]-2H,8H-pyrazolo[3,4-b]indole-5-carboxamide] |
| 100 to 10000 nM | Cn1cc2c3cc(C(=O)N4CCCC4c4ccc[nH]4)ccc3n(-c3ccc(C(F)(F)F)cc3)c2n1 (stereo not drawn) [Example B13, 2-(1-{2-methyl-8-[4-(trifluoromethyl)-phenyl]-2H,8H-pyrazolo[3,4-b]indole-5-carbonyl}pyrrolidin-2-yl)-1H-pyrrole] |
| 100 to 10000 nM | Cc1[nH]cnc1CNC(=O)c1ccc2c(c1)c1cn(C)nc1n2-c1ccc(C(F)(F)F)cc1 [Example B46, 2-methyl-N-[(5-methyl-1H-imidazol-4-yl)methyl]-8-[4-(trifluoromethyl)phenyl]-2H,8H-pyrazolo[3,4-b]indole-5-carboxamide] |
| 1 to 10 nM | Cc1oc(C2CC2)nc1CNC(=O)c1ccc2c(c1)c1cn(C)nc1n2-c1ccc(C(F)(F)F)cc1 [Example B85, N-[(2-cyclopropyl-5-methyl-1,3-oxazol-4-yl)methyl]-2-methyl-8-[4-(trifluoromethyl)phenyl]-2H,8H-pyrazolo[3,4-b]indole-5-carboxamide] |
| 100 to 10000 nM | CC(C)CC(NC(=O)c1ccc2c(c1)c1cn(C)nc1n2-c1ccc(C(F)(F)F)cc1)c1nc[nH]n1 (stereo not drawn) [Example B24, 2-methyl-N-[3-methyl-1-(1H-1,2,4-triazol-3-yl)butyl]-8-[4-(trifluoromethyl)phenyl]-2H,8H-pyrazolo[3,4-b]indole-5-carboxamide] |
| > 10000 nM | CO[C@H]1C[C@@H](CCO)N(C(=O)c2ccc3c(c2)c2cn(C)nc2n3-c2ccc(C(F)(F)F)cc2)C1 (single isomer, unassigned) [Example B4] |
| 100 to 10000 nM | Cn1cc2c3cc(C(=O)NC4(C5CCCO5)CCC4)ccc3n(-c3ccc(C(F)(F)F)cc3)c2n1 (stereo not drawn) [Example B81, 2-methyl-N-[1-(oxolan-2-yl)cyclobutyl]-8-[4-(trifluoromethyl)phenyl]-2H,8H-pyrazolo[3,4-b]indole-5-carboxamide] |
| 100 to 10000 nM | CC(NC(=O)c1ccc2c(c1)c1cn(C)nc1n2-c1ccc(C(F)(F)F)cc1)c1c[nH]cn1 (stereo not drawn) [Example B5, N-[1-(1H-imidazol-4-yl)ethyl]-2-methyl-8-[4-(trifluoromethyl)phenyl]-2H,8H-pyrazolo[3,4-b]indole-5-carboxamide] |
| 10 to 100 nM | Cn1cc2c3cc(C(=O)NC(CF)c4cnnn4C)ccc3n(-c3ccc(C(F)(F)F)cc3)c2n1 (stereo not drawn) [Example B91, N-[2-fluoro-1-(1-methyl-1H-1,2,3-triazol-5-yl)ethyl]-2-methyl-8-[4-(trifluoromethyl)phenyl]-2H,8H-pyrazolo[3,4-b]indole-5-carboxamide] |
| 100 to 10000 nM | CN(Cc1c[nH]cn1)C(=O)c1ccc2c(c1)c1cn(C)nc1n2-c1ccc(C(F)(F)F)cc1 [Example B50, N-[(1H-imidazol-4-yl)methyl]-N,2-dimethyl-8-[4-(trifluoromethyl)phenyl]-2H,8H-pyrazolo[3,4-b]indole-5-carboxamide] |
| 100 to 10000 nM | Cn1cc2c3cc(C(=O)NCC4CC45CCOC5)ccc3n(-c3ccc(C(F)(F)F)cc3)c2n1 (stereo not drawn) [Example B75, 2-methyl-N-({5-oxaspiro[2.4]heptan-1-yl}methyl)-8-[4-(trifluoromethyl)phenyl]-2H,8H-pyrazolo[3,4-b]indole-5-carboxamide] |
| 100 to 10000 nM | Cn1cc2c3cc(C(=O)N[C@@H]4C[C@H](O)c5ccccc54)ccc3n(-c3ccc(C(F)(F)F)cc3)c2n1 (relative stereo) [Example B1, N-[(1R,3S)-3-hydroxy-2,3-dihydro-1H-inden-1-yl]-2-methyl-8-[4-(trifluoromethyl)phenyl]-2H,8H-pyrazolo[3,4-b]indole-5-carboxamide] |
| 100 to 10000 nM | CC(CNC(=O)c1ccc2c(c1)c1cn(C)nc1n2-c1ccc(C(F)(F)F)cc1)c1ccc(F)cn1 (stereo not drawn) [Example B92, N-[2-(5-fluoropyridin-2-yl)propyl]-2-methyl-8-[4-(trifluoromethyl)phenyl]-2H,8H-pyrazolo[3,4-b]indole-5-carboxamide] |
| 100 to 10000 nM | Cn1cc2c3cc(C(=O)NC4CCCc5[nH]ccc54)ccc3n(-c3ccc(C(F)(F)F)cc3)c2n1 (stereo not drawn) [Example B44, 2-methyl-N-(4,5,6,7-tetrahydro-1H-indol-4-yl)-8-[4-(trifluoromethyl)phenyl]-2H,8H-pyrazolo[3,4-b]indole-5-carboxamide] |
| > 10000 nM | Cn1cc2c3cc(C(=O)N4CC(O)C5(CCOCC5)C4)ccc3n(-c3ccc(C(F)(F)F)cc3)c2n1 (stereo not drawn) [Example B56, 2-(2-methyl-8-[4-(trifluoromethyl)phenyl]-2H,8H-pyrazolo[3,4-b]indole-5-carbonyl}-8-oxa-2-azaspiro[4.5]decan-4-ol] |
| 100 to 10000 nM | Cn1cc2c3cc(C(=O)NCCc4cc(C5CC5)on4)ccc3n(-c3ccc(C(F)(F)F)cc3)c2n1 [Example B95, N-[2-(5-cyclopropyl-1,2-oxazol-3-yl)ethyl]-2-methyl-8-[4-(trifluoromethyl)phenyl]-2H,8H-pyrazolo[3,4-b]indole-5-carboxamide] |

Further lines, the molecule ahead of its results:

| SMILES | IC50 |
| --- | --- |
| Cn1cc2c3cc(C(=O)NCCc4nncn4C4CC4)ccc3n(-c3ccc(C(F)(F)F)cc3)c2n1 [B110^] | > 10000 nM |
| CCn1cnnc1CNC(=O)c1ccc2c(c1)c1cn(C)nc1n2-c1ccc(C(F)(F)F)cc1 [B129^] | 100 to 10000 nM |
| COCCC1CN(C(=O)c2ccc3c(c2)c2cn(C)nc2n3-c2ccc(C(F)(F)F)cc2)CCO1 (stereo not drawn) [B111^] | > 10000 nM |
| Cn1cc2c3cc(C(=O)N[C@@H]4CCO[C@H]4c4cc[nH]n4)ccc3n(-c3ccc(C(F)(F)F)cc3)c2n1 [B122^] | 10 to 100 nM |
| Cn1cc2c3cc(C(=O)NCCn4ccc(C5CC5)n4)ccc3n(-c3ccc(C(F)(F)F)cc3)c2n1 [B107^] | 100 to 10000 nM |
| Cn1cc2c(n1)c1cc(C(=O)O)ccc1n2-c1ccc(C(F)(F)F)cc1 [Example 4, 2-methyl-4-[4-(trifluoromethyl)phenyl]-2H,4H-pyrazolo[4,3-b]indole-7-carboxylic acid] | 100 to 10000 nM |
| O=C(O)c1ccc2c(c1)c1cn(Cc3ccccc3)cc1n2-c1ccccc1 [Example 3, 2-Benzyl-4-phenyl-2H,4H-pyrrolo[3,4-b]indole-7-carboxylic acid] | 1 to 10 nM |
| Cn1cc2c3cc(C(=O)N4CCC45CCCOCC5)ccc3n(-c3ccc(C(F)(F)F)cc3)c2n1 (stereo not drawn) [B108^] | > 10000 nM |
| Cn1cc2c3cc(C(=O)NCCCc4cc[nH]n4)ccc3n(-c3ccc(C(F)(F)F)cc3)c2n1 [B142^] | 100 to 10000 nM |
| Cn1cc2c3cc(C(=O)NC4CN(c5ccncn5)C4)ccc3n(-c3ccc(C(F)(F)F)cc3)c2n1 [B104^] | > 10000 nM |
| Cn1cc2c3cc(C(=O)NC4(CCF)CCOCC4)ccc3n(-c3ccc(C(F)(F)F)cc3)c2n1 [B112^] | 100 to 10000 nM |
| Cn1cc2c3cc(C(=O)O)ccc3n(Cc3cccc(C(F)(F)F)c3)c2n1 [Example 8, 2-Methyl-8-{[3-(trifluoromethyl)phenyl]methyl}-2H,8H-pyrazolo[3,4-b]indole-5-carboxylic acid] | 100 to 10000 nM |
| CCCn1ncnc1CNC(=O)c1ccc2c(c1)c1cn(C)nc1n2-c1ccc(C(F)(F)F)cc1 [B138^] | 100 to 10000 nM |
